Measured values from patent US12570662B2, “Substituted pyrrolo[1,2-b]pyridazines as bifunctional degraders of interleukin-1 receptor-associated kinases” (Nurix Therapeutics, Inc., priority 2021, dated 2026).

Molecular target: T1, IRAK4 (Homo sapiens, UniProt Q9NWZ3)
T1 construct: C-terminal HiBiT-tagged Jurkat cells (polyclonal cell line or clone 8D5); endogenous in cells; host or cells: Jurkat cells (polyclonal cell line or clone 8D5), HiBiT-tagged
T1 sequence (Q9NWZ3 1-460): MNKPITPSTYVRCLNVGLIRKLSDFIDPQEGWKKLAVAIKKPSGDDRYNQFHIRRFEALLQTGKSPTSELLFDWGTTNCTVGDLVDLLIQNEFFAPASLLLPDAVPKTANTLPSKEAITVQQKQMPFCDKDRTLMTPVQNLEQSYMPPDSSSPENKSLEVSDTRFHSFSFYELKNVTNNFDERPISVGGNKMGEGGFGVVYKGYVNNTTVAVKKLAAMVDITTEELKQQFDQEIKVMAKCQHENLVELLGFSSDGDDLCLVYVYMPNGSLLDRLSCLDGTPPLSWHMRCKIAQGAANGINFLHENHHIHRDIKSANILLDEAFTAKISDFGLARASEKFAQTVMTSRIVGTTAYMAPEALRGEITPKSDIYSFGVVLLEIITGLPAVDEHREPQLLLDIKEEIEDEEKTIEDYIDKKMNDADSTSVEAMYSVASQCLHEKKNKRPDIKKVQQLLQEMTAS
Assay: IRAK4 Degradation HiBit Assay
Assay type: cell-based
Conditions: C-terminal HiBiT-tagged Jurkat cells, 4 hrs incubation; for DC50: % IRAK4 remaining, four-parameter fit (IC50 used as DC50); for Dmax: from fit of % IRAK4 remaining, read-out: Dmax
Experimental: Compound dilution series (11-point, 3.16-fold dilutions in DMSO, columns 1-11 and 12-22) at 500× the final required concentrations were prepared in Labcyte LDV 384-well plates (cat. no. LP-0200) using a Labcyte Echo 550 Liquid Handler. The 500× solutions ranged from 5 mM to 0.5 μM (final assay concentration range 10 μM to 0.1 nM). Using the Echo, the 500× solutions were stamped into white, 384-well assay plates (Corning, cat. no. 3570) at 60 nL/well. The following assay plate controls were also stamped at 60 nL/well: DMSO in wells E23-P23 (NC, Negative Control, maximum signal), 5 mM solution control compound al in wells A23-D23 and M24-P24 (AC, Active Control, minimum signal/background, 10 μM final assay concentration), control compound al dilution series in wells […] (12-point, 4-fold dilutions). C-terminal HiBiT-tagged Jurkat cells (polyclonal cell line or clone 8D5) were plated at 1×10^6 cells/mL, 30 μL/well (3×10^4 cells/well) in complete RPMI (10% FBS, 1% L-glutamine). Cells were incubated for 4 hrs at 32° C./6% CO2. Compound al has the following structure:
Following incubation, 30 μL of complete Nano-Glo HiBiT Lytic Detection Reagent (Nano-Glo HiBiT Lytic Buffer with 1:50 Nano-Glo HiBiT Lytic Substrate and 1:100 LgBiT Protein; Promega cat. no. N3040) was added. Cells were further incubated for 10 min at room temperature (RT). Luminescence units (LU) were read on an EnVision plate reader (Perkin Elmer, 0.1 sec per well). Percent IRAK4 remaining per sample was calculated as follows: […]
Using Graphpad Prism, % IRAK4 remaining values were plotted as a function of compound concentration. To determine DC50 and Dmax values, resulting curves were fit to the Prism curve-fitting equation “log (inhibitor) vs response-Variable slope (four parameters)” (reported best fit value IC50 used as DC50). Table 1 summarizes the biological data of Compounds of Examples 1-137 and 142-145 obtained from the assays described herein.

Compound	DC50	Dmax
N#Cc1cnn2c(-c3cc(N[C@H]4CCOC4)c(-c4nnc(N5CCN(CC6CCN(c7ccc([C@H]8CCC(=O)NC8=O)cn7)CC6)CC5)s4)cn3)ccc2c1 (mixture of isomers) [Example 93, 7-[5-(5-{4-[(1-{5-[(3RS)-2,6-dioxopiperidin-3-yl]pyridin-2-yl}piperidin-4-yl)methyl]piperazin-1-yl}-1,3,4-thiadiazol-2-yl)-4-{[(3R)-oxolan-3-yl]amino}pyridin-2-yl]pyrrolo[1,2-b]pyridazine-3-carbonitrile]	16 nM	115%
N#Cc1cnn2c(-c3cc(NC4CCC(F)(F)CC4)c(-c4nnc(N5CCN(CC6CCN(c7ccc(C8CCC(=O)NC8=O)cn7)CC6)CC5)s4)cn3)ccc2c1 (racemic) [Example 1, rac-7-{4-[(4,4-difluorocyclohexyl)amino]-5-(5-{4-[(1-{5-[(3R)-2,6-dioxopiperidin-3-yl]pyridin-2-yl}piperidin-4-yl)methyl]piperazin-1-yl}-1,3,4-thiadiazol-2-yl)pyridin-2-yl}pyrrolo[1,2-b]pyridazine-3-carbonitrile]	860 nM	96%
CC(C)Nc1cc(-c2ccc3cc(C#N)cnn23)ncc1-c1nnc(N2CC3CCC(C2)N3CC2CCN(c3ccc([C@H]4CCC(=O)NC4=O)cn3)CC2)s1 (racemic) [Example 2, rac-7-[5-(5-{8-[(1-{5-[(3R)-2,6-dioxopiperidin-3-yl]pyridin-2-yl}piperidin-4-yl)methyl]-3,8-diazabicyclo[3.2.1]octan-3-yl}-1,3,4-thiadiazol-2-yl)-4-[(propan-2-yl)amino]pyridin-2-yl]pyrrolo[1,2-b]pyridazine-3-carbonitrile]	53 nM	67%
N#Cc1cnn2c(-c3cc(NC4CCOCC4)c(-c4nnc(N5CCN(CC6CCN(c7ccc(C8CCC(=O)NC8=O)c(F)c7)CC6)CC5)s4)cn3)ccc2c1 (racemic) [Example 3, rac-7-[5-(5-{4-[(1-{4-[(3R)-2,6-dioxopiperidin-3-yl]-3-fluorophenyl}piperidin-4-yl)methyl]piperazin-1-yl}-1,3,4-thiadiazol-2-yl)-4-[(oxan-4-yl)amino]pyridin-2-yl]pyrrolo[1,2-b]pyridazine-3-carbonitrile]	55 nM	93%
N#Cc1cnn2c(-c3cc(NC4CCOCC4)c(-c4nnc(N5CCN(CC6CCN(c7ccc(C8CCC(=O)NC8=O)cc7F)CC6)CC5)s4)cn3)ccc2c1 (racemic) [Example 4, rac-7-[5-(5-{4-[(1-{4-[(3R)-2,6-dioxopiperidin-3-yl]-2-fluorophenyl}piperidin-4-yl)methyl]piperazin-1-yl}-1,3,4-thiadiazol-2-yl)-4-[(oxan-4-yl)amino]pyridin-2-yl]pyrrolo[1,2-b]pyridazine-3-carbonitrile]	65 nM	90%
CNc1cc(-c2ccc3cc(C#N)cnn23)ncc1-c1nnc([C@H]2CC[C@H](C(=O)N3CCc4cc([C@H]5CCC(=O)NC5=O)ccc4C3)CC2)s1 (racemic) [Example 5, 7-[4-(methylamino)-5-{5-[(1r,4r)-4-{6-[(3RS)-2,6-dioxopiperidin-3-yl]-1,2,3,4-tetrahydroisoquinoline-2-carbonyl}cyclohexyl]-1,3,4-thiadiazol-2-yl}pyridin-2-yl]pyrrolo[1,2-b]pyridazine-3-carbonitrile]	21 nM	79%
CNc1cc(-c2ccc3cc(C#N)cnn23)ncc1-c1nnc([C@H]2CC[C@H](CN3CCc4cc([C@H]5CCC(=O)NC5=O)ccc4C3)CC2)s1 (racemic) [Example 6, 7-[4-(methylamino)-5-{5-[(1r,4r)-4-({6-[(3RS)-2,6-dioxopiperidin-3-yl]-1,2,3,4-tetrahydroisoquinolin-2-yl}methyl)cyclohexyl]-1,3,4-thiadiazol-2-yl}pyridin-2-yl]pyrrolo[1,2-b]pyridazine-3-carbonitrile]	70 nM	36%
CC(C)Nc1cc(-c2ccc3cc(C#N)cnn23)ncc1-c1nnc(N2CCN(CC3CCN(c4ccc(C5CCC(=O)NC5=O)cn4)CC3)C3(CC3)C2)s1 (racemic) [Example 7, rac-7-[5-(5-{4-[(1-{5-[(3R)-2,6-dioxopiperidin-3-yl]pyridin-2-yl}piperidin-4-yl)methyl]-4,7-diazaspiro[2.5]octan-7-yl}-1,3,4-thiadiazol-2-yl)-4-[(propan-2-yl)amino]pyridin-2-yl]pyrrolo[1,2-b]pyridazine-3-carbonitrile]	129 nM	17%
N#Cc1cnn2c(-c3cc(NC4CCOCC4)c(-c4nnc(N5CCN(CC6CCN(c7ccc(C8CCC(=O)NC8=O)cc7)CC6)CC5)s4)cn3)ccc2c1 (racemic) [Example 9, rac-7-[5-(5-{4-[(1-{4-[(3R)-2,6-dioxopiperidin-3-yl]phenyl}piperidin-4-yl)methyl]piperazin-1-yl}-1,3,4-thiadiazol-2-yl)-4-[(oxan-4-yl)amino]pyridin-2-yl]pyrrolo[1,2-b]pyridazine-3-carbonitrile]	69 nM	90%
CC(C)Nc1cc(-c2ccc3cc(C#N)cnn23)ncc1-c1nnc(N2CCN(C[C@@H]3CCN(c4ccc([C@H]5CCC(=O)NC5=O)cn4)C3)CC2)s1 (racemic) [Example 10, 7-{5-[5-(4-{[(3RS)-1-{5-[(3RS&)-2,6-dioxopiperidin-3-yl]pyridin-2-yl}pyrrolidin-3-yl]methyl}piperazin-1-yl)-1,3,4-thiadiazol-2-yl]-4-[(propan-2-yl)amino]pyridin-2-yl}pyrrolo[1,2-b]pyridazine-3-carbonitrile]	41 nM	71%
N#Cc1cnn2c(-c3cc(NC4CCOCC4)c(-c4nnc(N5CCN(CC6CCN(c7cncc(C8CCC(=O)NC8=O)c7)CC6)CC5)s4)cn3)ccc2c1 (racemic) [Example 11, rac-7-[5-(5-{4-[(1-{5-[(3R)-2,6-dioxopiperidin-3-yl]pyridin-3-yl}piperidin-4-yl)methyl]piperazin-1-yl}-1,3,4-thiadiazol-2-yl)-4-[(oxan-4-yl)amino]pyridin-2-yl]pyrrolo[1,2-b]pyridazine-3-carbonitrile]	32 nM	77%
N#Cc1cnn2c(-c3cc(NC4CCOCC4)c(-c4nnc(N5CCN(CC6CCN(c7cc(C8CCC(=O)NC8=O)ccn7)CC6)CC5)s4)cn3)ccc2c1 (racemic) [Example 12, rac-7-[5-(5-{4-[(1-{4-[(3R)-2,6-dioxopiperidin-3-yl]pyridin-2-yl}piperidin-4-yl)methyl]piperazin-1-yl}-1,3,4-thiadiazol-2-yl)-4-[(oxan-4-yl)amino]pyridin-2-yl]pyrrolo[1,2-b]pyridazine-3-carbonitrile]	36 nM	60%
N#Cc1cnn2c(-c3cc(NC4CCOCC4)c(-c4nnc(N5CCN(C[C@@H]6CCN(c7ccc([C@H]8CCC(=O)NC8=O)cn7)C6)CC5)s4)cn3)ccc2c1 (racemic) [Example 13, 7-{5-[5-(4-{[(3RS)-1-{5-[(3RS&)-2,6-dioxopiperidin-3-yl]pyridin-2-yl}pyrrolidin-3-yl]methyl}piperazin-1-yl)-1,3,4-thiadiazol-2-yl]-4-[(oxan-4-yl)amino]pyridin-2-yl}pyrrolo[1,2-b]pyridazine-3-carbonitrile]	32 nM	66%
N#Cc1cnn2c(-c3cc(NC4CCOCC4)c(-c4nnc(N5CCN(CCC6CCN(c7ccc(C8CCC(=O)NC8=O)cn7)CC6)CC5)s4)cn3)ccc2c1 (racemic) [Example 14, rac-7-[5-(5-{4-[2-(1-{5-[(3R)-2,6-dioxopiperidin-3-yl]pyridin-2-yl}piperidin-4-yl)ethyl]piperazin-1-yl}-1,3,4-thiadiazol-2-yl)-4-[(oxan-4-yl)amino]pyridin-2-yl]pyrrolo[1,2-b]pyridazine-3-carbonitrile]	70 nM	81%
